Measurements taken from patent publication US20100204224A1, “AZACYCLIC COMPOUNDS AS INHIBITORS OF SENSORY NEURONE SPECIFIC SODIUM CHANNELS” (priority 2005, published 2010).

Molecular target: T1, human Nav1.8 (hNav1.8) ion channel (Homo sapiens, UniProt Q9Y5Y9)
T1 construct: expressed in transfected cells
Assay: Inhibition of human Nav1.8 stably expressed in SH-SY-5Y cells (membrane potential dye fluorescence assay)
Format: cell-based
Conditions: SH-SY-5Y hNav1.8 cells; FLIPR membrane potential dye; 10 μM pyrethroid, 250 nM TTX; test concentration range 100 μM-0.05 μM; read-out: hNav1.8 IC50
Protocol: Inhibition of Human Nav1.8 stably expressed in SH-SY-5Y Cells
A SH-SY-5Y neuroblastoma cell line stably expressing the human Nav1.8 (hNav1.8) ion channel was constructed. This cell line has been used to develop a medium to high throughput assay for determining the ability of test compounds to inhibit membrane depolarisation mediated via the hNav1.8 channel.
SH-SY-5Y hNav1.8 are grown in adherent monolayer culture using 50:50 Ham's F-12/EMEM tissue culture medium supplemented with 15% (v/v) foetal bovine serum; 2 mM L-glutamine, 1% NEAR and 600 μg·ml^−1 Geneticin sulphate. Cells are removed from the tissue culture flask using trypsin/EDTA and re-plated into black walled, clear bottom 96-well assay plates at 50,000 cells·well^−1 24 hours prior to assay.
On the day of assay the cell assay plates are washed to remove cell culture medium using a sodium free assay buffer (145 mM tetramethyl ammonium chloride; 2 mM calcium chloride; 0.8 mM magnesium chloride hexahydrate; 10 mM HEPES; 10 mM glucose; 5 mM potassium chloride, pH 7.4). Fluorescent membrane potential dye solution (FLIPR™ membrane potential dye, Molecular Devices Corporation), containing 10 μM of a pyrethroid to prevent channel inactivation and 250 nM tetrodotoxin (TTX) to reduce interference from TTX-sensitive sodium channels present in the cell line. Test compound, initially dissolved in dimethyl sulfoxide but further diluted in sodium free buffer, is added to achieve the final test concentration range of 100 μM-0.05 μM.
Cell plates are incubated for 30 minutes at room temperature to allow equilibration of dye and test compound. Plates are then transferred to a fluorescence plate reader for fluorescence measurement using an excitation wavelength of 530 nm whilst measuring fluorescence emission at 565 nm. Baseline fluorescence levels are first determined before the addition of a sodium containing buffer (220 mM sodium chloride; 2 mM calcium chloride; 0.8 mM magnesium chloride hexahydrate; 10 mM HEPES; 10 mM glucose; 5 mM potassium chloride. pH 7.4) to cause membrane depolarisation in those cells where channel block has not been effected (final sodium concentration=72.5 mM). Membrane depolarisation is registered by an increase in fluorescence emission at 565 nm.
The change in fluorescence seen in each test well upon the addition of sodium containing buffer is calculated relative to the baseline fluorescence for that well. This figure is then used for calculating the IC50 for each test compound.

T1 sequence (Q9Y5Y9 whole entry): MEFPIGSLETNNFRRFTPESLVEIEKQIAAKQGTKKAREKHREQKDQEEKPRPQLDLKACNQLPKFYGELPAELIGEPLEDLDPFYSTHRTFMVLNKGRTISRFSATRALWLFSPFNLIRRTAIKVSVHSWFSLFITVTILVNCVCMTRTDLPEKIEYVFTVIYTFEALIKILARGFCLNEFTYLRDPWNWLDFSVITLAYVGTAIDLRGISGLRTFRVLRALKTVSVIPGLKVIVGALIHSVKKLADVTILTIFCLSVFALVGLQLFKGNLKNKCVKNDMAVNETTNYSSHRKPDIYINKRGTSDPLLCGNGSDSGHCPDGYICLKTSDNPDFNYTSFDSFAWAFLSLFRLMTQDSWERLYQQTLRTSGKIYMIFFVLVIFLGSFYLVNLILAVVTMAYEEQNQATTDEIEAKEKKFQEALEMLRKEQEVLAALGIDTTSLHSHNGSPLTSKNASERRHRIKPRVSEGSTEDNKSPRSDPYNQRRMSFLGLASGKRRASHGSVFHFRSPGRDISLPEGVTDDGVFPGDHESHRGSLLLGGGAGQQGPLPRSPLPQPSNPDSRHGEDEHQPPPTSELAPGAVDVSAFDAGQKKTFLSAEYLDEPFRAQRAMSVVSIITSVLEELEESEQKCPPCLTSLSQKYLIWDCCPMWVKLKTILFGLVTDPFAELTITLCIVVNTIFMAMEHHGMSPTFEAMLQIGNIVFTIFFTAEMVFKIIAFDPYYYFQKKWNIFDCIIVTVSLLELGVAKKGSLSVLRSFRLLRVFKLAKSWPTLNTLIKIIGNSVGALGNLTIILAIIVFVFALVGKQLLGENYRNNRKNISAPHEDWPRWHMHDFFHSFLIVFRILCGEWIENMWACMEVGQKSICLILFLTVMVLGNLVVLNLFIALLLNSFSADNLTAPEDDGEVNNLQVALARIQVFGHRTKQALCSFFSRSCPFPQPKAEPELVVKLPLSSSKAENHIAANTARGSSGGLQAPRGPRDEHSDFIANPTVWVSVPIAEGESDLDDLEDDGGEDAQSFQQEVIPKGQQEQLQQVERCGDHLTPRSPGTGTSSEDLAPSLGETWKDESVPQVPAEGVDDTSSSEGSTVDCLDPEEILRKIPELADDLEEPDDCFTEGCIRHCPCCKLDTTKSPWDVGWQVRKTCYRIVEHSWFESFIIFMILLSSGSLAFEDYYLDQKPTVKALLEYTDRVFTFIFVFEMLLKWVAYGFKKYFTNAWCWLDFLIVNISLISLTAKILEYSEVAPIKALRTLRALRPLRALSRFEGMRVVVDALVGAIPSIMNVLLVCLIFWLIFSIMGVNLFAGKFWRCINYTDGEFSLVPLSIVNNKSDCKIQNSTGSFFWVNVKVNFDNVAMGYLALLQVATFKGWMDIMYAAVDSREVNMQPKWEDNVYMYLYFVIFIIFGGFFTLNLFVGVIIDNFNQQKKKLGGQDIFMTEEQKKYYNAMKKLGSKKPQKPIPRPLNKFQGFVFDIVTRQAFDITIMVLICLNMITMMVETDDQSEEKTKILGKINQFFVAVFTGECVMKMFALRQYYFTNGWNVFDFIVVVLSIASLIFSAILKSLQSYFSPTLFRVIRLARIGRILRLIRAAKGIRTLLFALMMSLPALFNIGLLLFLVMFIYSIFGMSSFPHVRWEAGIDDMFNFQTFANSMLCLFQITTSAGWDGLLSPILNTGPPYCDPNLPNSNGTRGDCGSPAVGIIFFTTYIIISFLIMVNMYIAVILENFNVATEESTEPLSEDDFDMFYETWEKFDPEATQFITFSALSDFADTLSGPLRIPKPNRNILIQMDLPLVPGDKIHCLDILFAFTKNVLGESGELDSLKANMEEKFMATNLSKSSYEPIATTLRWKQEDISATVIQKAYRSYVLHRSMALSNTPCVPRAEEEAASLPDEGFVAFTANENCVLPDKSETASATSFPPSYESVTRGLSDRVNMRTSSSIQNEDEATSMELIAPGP

Q: For O=C(Nc1ccc(C(F)(F)F)cc1)N1CC2CC1CN2C1CCc2cc(F)ccc21 (centres unmarked) [Example 94, 5-(5-Fluoro-indan-1-yl)-2,5-diaza-bicyclo[2.2.1]heptane-2-carboxylic acid (4-trifluoromethyl-phenyl)-amide], which IC50 is on record?
A: 1.89 µM

Q: How did the IC50 turn out when “1-{5-[1-(2,5-Dichloro-phenyl)-ethyl]-2,5-diaza-bicyclo[2.2.1]hept-2-yl}-2-[4-(4-fluoro-phenoxy)-phenyl]-ethanone [Example 157]” was run?
A: ≥ 30 µM

Q: CC(c1ccccc1C(F)(F)F)N1CC2CC1CN2C(=O)Nc1cccc(C(F)(F)F)c1 (centres unmarked) [Example 55, 5-[1-(2-Trifluoromethyl-phenyl)-ethyl]-2,5-diaza-bicyclo[2.2.1]heptane-2-carboxylic acid (3-trifluoromethyl-phenyl)-amide] was tested. Which IC50 did it give?
A: 4.24 µM

Q: With Cc1ccccc1C(C)N1CC2CC1CN2C(=O)Nc1ccc(OCC2CCCO2)cc1 (centres unmarked) [Example 26, 5-(1-o-Tolyl-ethyl)-2,5-diaza-bicyclo[2.2.1]heptane-2-carboxylic acid [4-(tetrahydro-furan-2-ylmethoxy)-phenyl]-amide] as the compound, how does the IC50 read?
A: 16.7 µM

Q: CC(Cc1ccc(F)cc1)N1CC2CC1CN2C(=O)Nc1ccc(C(F)(F)F)cc1 (centres unmarked) [Example 80, 5-[2-(4-Fluoro-phenyl)-1-methyl-ethyl]-2,5-diaza-bicyclo[2.2.1]heptane-2-carboxylic acid (4-trifluoromethyl-phenyl)-amide] was tested. Which IC50 did it give?
A: 0.49 µM

Q: Which IC50 does the source give for Cc1ccccc1CC(C)N1CC2CC1CN2C(=O)Nc1ccc(Oc2ccccc2)cc1 (centres unmarked) [Example 58, 5-(1-Methyl-2-o-tolyl-ethyl)-2,5-diaza-bicyclo[2.2.1]heptane-2-carboxylic acid (4-phenoxy-phenyl)-amide] here?
A: 0.23 µM

Q: How did the IC50 turn out when O=C(Nc1ccc(C(F)(F)F)cc1)N1CC2CC1CN2C1CCc2cc(F)ccc21 (centres unmarked) [Example 95, 5-(5-Fluoro-indan-1-yl)-2,5-diaza-bicyclo[2.2.1]heptane-2-carboxylic acid (4-trifluoromethyl-phenyl)-amide] was run?
A: 1.06 µM

Q: Cc1ccsc1CN1CC2CC1CN2C(=O)Nc1ccc(Oc2ccccc2)nc1 (centres unmarked) [Example 2, 5-(3-Methyl-thiophen-2-ylmethyl)-2,5-diaza-bicyclo[2.2.1]heptane-2-carboxylic acid (6-phenoxy-pyridin-3-yl)-amide] was tested. Which IC50 did it give?
A: 3.74 µM

Q: How did the IC50 turn out when Cc1ccccc1C(C)N1CC2CC1CN2C(=O)Nc1ccc(C(F)(F)F)cc1 (centres unmarked) [Example 6, 5-(1-o-Tolyl-ethyl)-2,5-diaza-bicyclo[2.2.1]heptane-2-carboxylic acid (4-trifluoromethyl-phenyl)-amide] was run?
A: 0.99 µM

Q: Which IC50 does the source give for Cc1ccsc1C(C)N1CC2CC1CN2C(=O)Nc1ccc(Oc2ccccc2)cc1 (centres unmarked) [Example 14, 5-[1-(3-Methyl-thiophen-2-yl)-ethyl]-2,5-diaza-bicyclo[2.2.1]heptane-2-carboxylic acid (4-phenoxy-phenyl)-amide] here?
A: 0.9 µM

Q: With CC(c1ccccc1Cl)N1CC2CC1CN2C(=O)c1cc2cc(Cl)ccc2[nH]1 (centres unmarked) [Example 150, (5-Chloro-1H-indol-2-yl)-{5-[1-(2-chloro-phenyl)-ethyl]-2,5-diaza-bicyclo[2.2.1]hept-2-yl}-methanone] as the compound, how does the IC50 read?
A: 18.2 µM

Q: With CC(Cc1c(F)cccc1Cl)N1CC2CC1CN2C(=O)Nc1ccc(C(F)(F)F)cc1 (centres unmarked) [Example 85, 5-[2-(2-Chloro-6-fluoro-phenyl)-1-methyl-ethyl]-2,5-diaza-bicyclo[2.2.1]heptane-2-carboxylic acid (4-trifluoromethyl-phenyl)-amide] as the compound, how does the IC50 read?
A: 0.63 µM

Q: With O=C(Nc1ccc(Oc2ccc(F)cc2)cc1)N1CC2CC1CN2C1Cc2ccccc2C1 (centres unmarked) [Example 106, 5-Indan-2-yl-2,5-diaza-bicyclo[2.2.1]heptane-2-carboxylic acid [4-(4-fluoro-phenoxy)-phenyl]-amide] as the compound, how does the IC50 read?
A: 0.17 µM

Q: For CC(c1ccc(Cl)cc1Cl)N1CC2CC1CN2C(=O)Nc1ccc(C(F)(F)F)cc1 (centres unmarked) [Example 126, 5-[1-(2,4-Dichloro-phenyl)-ethyl]-2,5-diaza-bicyclo[2.2.1]heptane-2-carboxylic acid (4-trifluoromethyl-phenyl)-amide], which IC50 is on record?
A: 22.9 µM

Q: For Cc1ccccc1C(C)N1CC2CC1CN2C(=O)Nc1ccc(OCCN2CCCC2=O)cc1 (centres unmarked) [Example 23, 5-(1-o-Tolyl-ethyl)-2,5-diaza-bicyclo[2.2.1]heptane-2-carboxylic acid {4-[2-(2-oxo-pyrrolidin-1-yl)-ethoxy]-phenyl}-amide], which IC50 is on record?
A: ≥ 30 µM

Q: Which IC50 does the source give for Cc1ccccc1CC(C)N1CC2CC1CN2C(=O)NC(C)c1ccc(F)cc1 (centres unmarked) [Example 70, 5-(1-Methyl-2-o-tolyl-ethyl)-2,5-diaza-bicyclo[2.2.1]heptane-2-carboxylic acid [1-(4-fluoro-phenyl)-ethyl]-amide] here?
A: 5.08 µM

Q: How did the IC50 turn out when O=C(Nc1ccc(Oc2ccc(F)cc2)cc1)N1CC2CN(C3Cc4ccccc4C3)CC2C1 (centres unmarked) [Example 112, 5-Indan-2-yl-hexahydro-pyrrolo[3,4-c]pyrrole-2-carboxylic acid [4-(4-fluoro-phenoxy)-phenyl]-amide] was run?
A: 0.3 µM

Q: CC(c1c(F)cccc1F)N1CC2CC1CN2C(=O)Nc1ccc(Oc2ccccc2)cc1 (centres unmarked) [Example 10, 5-[1-(2,6-Difluoro-phenyl)-ethyl]-2,5-diaza-bicyclo[2.2.1]heptane-2-carboxylic acid (4-phenoxy-phenyl)-amide] was tested. Which IC50 did it give?
A: 1.1 µM

Q: How did the IC50 turn out when Cc1ccccc1C(C)N1CC2CC1CN2C(=O)Nc1ccc(-c2ccccc2)cc1 (centres unmarked) [Example 38, 5-(1-o-Tolyl-ethyl)-2,5-diaza-bicyclo[2.2.1]heptane-2-carboxylic acid biphenyl-4-ylamide] was run?
A: 1.44 µM

Q: CCOCCOCCOc1ccc(NC(=O)N2CC3CC2CN3C(C)c2ccccc2C)cc1 (centres unmarked) [Example 16, 5-(1-o-Tolyl-ethyl)-2,5-diaza-bicyclo[2.2.1]heptane-2-carboxylic acid {4-[2-(2-ethoxy-ethoxy)-ethoxy]-phenyl}-amide] was tested. Which IC50 did it give?
A: 25.6 µM

Q: Cc1cc(F)ccc1C(C)N1CC2CC1CN2C(=O)Nc1ccc(Oc2ccc(F)cc2)cc1 (centres unmarked) [Example 75, 5-[1-(4-Fluoro-2-methyl-phenyl)-ethyl]-2,5-diaza-bicyclo[2.2.1]heptane-2-carboxylic acid [4-(4-fluoro-phenoxy)-phenyl]-amide] was tested. Which IC50 did it give?
A: 0.57 µM

Q: How did the IC50 turn out when COCCOc1ccc(NC(=O)N2CC3CC2CN3C(C)c2ccccc2C)cc1 (centres unmarked) [Example 19, 5-(1-o-Tolyl-ethyl)-2,5-diaza-bicyclo[2.2.1]heptane-2-carboxylic acid [4-(2-methoxy-ethoxy)-phenyl]-amide] was run?
A: ≥ 30 µM

Same assay, conditions: hNav1.8 IC50, SH-SY-5Y hNav1.8 cells; FLIPR membrane potential dye; 10 μM pyrethroid, 250 nM TTX; test concentration range 100 μM-0.05 μM

Q: Which IC50 does the source give for Cc1ccccc1C(C)N1CC2CC1CN2C(=O)Cc1ccc(Oc2ccccc2)cc1 (centres unmarked) [Example 36, 2-(4-Phenoxy-phenyl)-1-[5-(1-o-tolyl-ethyl)-2,5-diaza-bicyclo[2.2.1]hept-2-yl]-ethanone] here?
A: 0.81 µM

Q: How did the IC50 turn out when CC(c1ccccc1Br)N1CC2CC1CN2C(=O)Cc1ccc(Oc2ccc(F)cc2)cc1 (centres unmarked) [Example 154, 1-{5-[1-(2-Bromo-phenyl)-ethyl]-2,5-diaza-bicyclo[2.2.1]hept-2-yl}-2-[4-(4-fluoro-phenoxy)-phenyl]-ethanone] was run?
A: 4.31 µM

Q: With O=C(Cc1ccc(Oc2ccccc2)cc1)N1CC2CC1CN2C1Cc2ccc(F)cc2C1 (centres unmarked) [Example 134, 1-[5-(5-Fluoro-indan-2-yl)-2,5-diaza-bicyclo[2.2.1]hept-2-yl]-2-(4-phenoxy-phenyl)-ethanone] as the compound, how does the IC50 read?
A: 1.6 µM

Q: For Cc1ccccc1C(C)N1CC2CC1CN2C(=O)Cc1ccc(Oc2cccc(F)c2)cc1 (centres unmarked) [Example 172, 2-[4-(3-Fluoro-phenoxy)-phenyl]-1-[5-(1-o-tolyl-ethyl)-2,5-diaza-bicyclo[2.2.1]hept-2-yl]-ethanone], which IC50 is on record?
A: 0.71 µM
